These molecules were tested against T1, wildtype HIV-1 protease (Human immunodeficiency virus type 1 group M subtype B, UniProt P04585) (assay: Assay for inhibition of microbial expressed HIV protease (Pepcleav)). Conditions: wild type HIV-1 protease expressed in E. coli, peptide substrate, pH 5.5; mean of at least two independent experiments; read-out: Pepcleav.
T1 construct: the wildtype HIV-1 protease (which was expressed in Escherichia coli); made in house; host or cells: Escherichia coli
Type: biochemical
How it was run: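 E. coli-expressed wild-type HIV-1 protease (20 pM) preincubated 30 min at room temperature with inhibitor in pH 5.5 sodium acetate/NaCl/BSA buffer, then 400 μM Val-Ser-Gln-Asn-(βnaphthyl)Ala-Pro-Ile-Val added for 1 h at 30 °C. Quenched with formic acid; product quantified by LC-MS/MS peak area, indinavir internal standard.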

Compared with `N[C@H](C(=O)Nc1cncc(F)c1CC[C@@H]1CN[C@H](COC(=O)NCC2CCS(=O)(=O)C2)CO1)C(c1ccc(F)cc1)c1ccc(F)cc1` (stereo partly drawn) [Example 209, N-[4-(2-{(2R,5S)-5-[({[(1,1-dioxidotetrahydrothiophen-3-yl)methyl]carbamoyl}oxy)methyl]morpholin-2-yl}ethyl)-5-fluoropyridin-3-yl]-4-fluoro-β-(4-fluorophenyl)-L-phenylalaninamide], `CN1CCC(NC(=O)OC[C@@H]2CO[C@H](CCc3c(F)cncc3NC(=O)[C@@H](N)C(c3ccc(F)cc3)c3ccc(F)cc3)CN2)C1` (stereo partly drawn) [Example 229, 4-fluoro-N-(5-fluoro-4-{2-[(2R,5S)-5-({[(1-methylpyrrolidin-3-yl)carbamoyl]oxy}methyl)morpholin-2-yl]ethyl}pyridin-3-yl)-β-(4-fluorophenyl)-L-phenylalaninamide] is 12-fold higher in IC50: 16 nM for the first, 190 nM for the second. The first is the more potent here.

First: C[C@H](NC(=O)OC[C@@H]1CO[C@H](COc2c(F)cccc2NC(=O)[C@@H](N)C(c2ccc(F)cc2)c2ccc(F)cc2)CN1)c1ccc(F)cc1 [Example 210, 4-fluoro-N-[3-fluoro-2-({(2S,5S)-5-[({[(1S)-1-(4-fluorophenyl)ethyl]carbamoyl}oxy)methyl]morpholin-2-yl}methoxy)phenyl]-β-(4-fluorophenyl)-L-phenylalaninamide]
Second: Cc1cccc(NC(=O)[C@@H](N)C(c2ccc(F)cc2)c2ccc(F)cc2)c1CC[C@@H]1CN[C@H](COC(=O)NCC(F)(F)F)CO1 [Example 226, 4-fluoro-β-(4-fluorophenyl)-N-(3-methyl-2-{2-[(2R,5S)-5-({[(2,2,2-trifluoro-ethyl)carbamoyl]oxy}methyl)morpholin-2-yl]ethyl}phenyl)-L-phenylalaninamide]
The IC50 of the first is 28-fold lower: 13 nM for the first, 360 nM for the second. The first is the more potent here.

Going from `N[C@H](C(=O)Nc1cncc(F)c1CC[C@@H]1CN[C@H](COC(=O)N[C@@H]2COC[C@@H]2F)CO1)C(c1ccc(F)cc1)c1ccc(F)cc1` [Example 211] to `CC(C)(CO)NC(=O)OC[C@@H]1CO[C@H](CCc2c(F)cncc2NC(=O)[C@@H](N)C(c2ccc(F)cc2)c2ccc(F)cc2)CN1` [Example 218, 4-fluoro-N-(5-fluoro-4-{2-[(2R,5S)-5-({[(2-hydroxy-1,1-dimethylethyl)carbamoyl]oxy}methyl)morpholin-2-yl]ethyl}pyridin-3-yl)-β-(4-fluorophenyl)-L-phenylalaninamide], the IC50 falls from 12 nM to 2.1 nM (5.7-fold). The second is the more potent here.

Compared with `N[C@@H](C(=O)Nc1cncc(F)c1CC[C@@H]1CN[C@H](CO)CO1)[C@@H](c1ccccc1)c1ccnc2ccccc12` [Example 225, (βS)-N-(5-fluoro-4-{2-[(2R,5R)-5-(hydroxymethyl)morpholin-2-yl]ethyl}pyridin-3-yl)-β-quinolin-4-yl-D-phenylalaninamide], `N[C@H](C(=O)Nc1cccc(F)c1CC[C@@H]1CN[C@H](COC(=O)NCC(F)(F)F)CO1)[C@H](c1ccccc1)c1ccc(Oc2ccccc2)cc1` [Example 227, (βR)-N-(3-fluoro-2-{2-[(2R,5S)-5-( {[(2,2,2-trifluoroethyl)carbamoyl]oxy}methyl)morpholin-2-yl]ethyl}phenyl)-O,β-diphenyl-L-tyrosinamide] is 7.9-fold lower in IC50: 2700 nM for the first, 340 nM for the second. The second is the more potent here.

`CCC[C@H](c1ccccc1)[C@H](N)C(=O)Nc1cccc(F)c1CC[C@@H]1CN[C@H](COC(=O)NCC(F)(F)F)CO1` [Example 228, (βR)-N-(3-fluoro-2-{2-[(2R,5S)-5-({[(2,2,2-trifluoroethyl)carbamoyl]oxy}methyl)morpholin-2-yl]ethyl}phenyl)-β-propyl-L-phenylalaninamide] and `N[C@H](C(=O)Nc1cccc(F)c1CC[C@@H]1CN[C@H](COC(=O)NCC(F)(F)F)CO1)[C@H](c1ccc(F)cc1)c1ccc(Oc2ccccc2)cc1` [Example 230, (βS)-β-(4-fluorophenyl)-N-(3-fluoro-2-{2-[(2R,5S)-5-({[(2,2,2-trifluoroethyl)carbamoyl]oxy}methyl)morpholin-2-yl]ethyl}phenyl)-O-phenyl-L-tyrosinamide] are within 1.5-fold of each other in IC50: 190 nM for the first, 180 nM for the second.

From US9315475B2 (MERCK SHARP & DOHME CORP., priority 2011, dated 2016)
